Source: patent publication US20230183237A1, “COMPETITIVE AND NONCOMPETITIVE INHIBITORS OF THE MUSCARINIC ACETYLCHOLINE RECEPTOR M5” (Vanderbilt University, priority 2020, published 2023)
Like-named read-outs stand apart in the source and are kept apart here.

Biological target: T1, hM5 (Homo sapiens, UniProt P08912)
T1 construct: expressed in transfected cells
T1 sequence (P08912 1-532): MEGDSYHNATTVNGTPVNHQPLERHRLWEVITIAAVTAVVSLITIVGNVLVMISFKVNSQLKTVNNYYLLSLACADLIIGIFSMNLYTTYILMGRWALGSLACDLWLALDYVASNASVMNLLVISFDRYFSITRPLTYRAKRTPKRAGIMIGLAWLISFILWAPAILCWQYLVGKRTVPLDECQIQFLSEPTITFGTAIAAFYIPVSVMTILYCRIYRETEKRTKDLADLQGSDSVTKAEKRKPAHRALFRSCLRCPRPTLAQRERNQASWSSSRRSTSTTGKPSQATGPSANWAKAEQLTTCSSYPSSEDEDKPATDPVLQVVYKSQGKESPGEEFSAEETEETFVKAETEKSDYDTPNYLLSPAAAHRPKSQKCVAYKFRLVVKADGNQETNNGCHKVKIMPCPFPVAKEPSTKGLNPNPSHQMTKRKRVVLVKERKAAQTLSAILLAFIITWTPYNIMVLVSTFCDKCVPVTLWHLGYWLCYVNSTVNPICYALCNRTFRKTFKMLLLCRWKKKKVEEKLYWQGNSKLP
Assay: Calcium mobilization concentration-response (IC50 vs EC80 acetylcholine), CHO hM5
Assay type: cell-based
Conditions: CELL LINE hM5, read-out: IC50
How it was run: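 CHO cells stably expressing hM5, dye-loaded, in HBSS/20 mM HEPES/2.5 mM probenecid, pH 7.4. Compounds were pre-incubated 140 s before an EC80 acetylcholine challenge, with calcium flux read kinetically.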

[1] = calcium mobilization, EC80 acetylcholine addition

| Compound | IC50 (vs EC80 acetylcholine) | IC50 [1] |
| --- | --- | --- |
| [2H]C([2H])([2H])Oc1c(S(=O)(=O)N2CCC(c3cn4ncnc4c(F)c3C)CC2)cnn1C [Compound 614, 8-fluoro-6-(1-((5-(methoxy-d3)-1-methyl-1H-pyrazol-4-yl)sulfonyl)piperidin-4-yl)-7-methyl-[1,2,4]triazolo[1,5-a]pyridine] | 0.059 µM |  |
| O=S(=O)(c1ccc2c(c1)CCO2)N1CCC(c2ccc3ncnn3c2)CC1 [Compound 60, 6-(1-((2,3-dihydrobenzofuran-5-yl)sulfonyl)piperidin-4-yl)-[1,2,4]triazolo[1,5-a]pyridine] |  | > 10 µM |
| Cc1cc2nccn2nc1N1CCN(S(=O)(=O)c2ccc3c(c2)CCO3)CC1 [Compound 36, 6-(4-((2,3-Dihydrobenzofuran-5-yl)sulfonyl)piperazin-1-yl)-7-methylimidazo[1,2-b]pyridazine] |  | 4 µM |
| O=S(=O)(c1ccc2c(c1)CCO2)N1CCC(c2cc3cc[nH]c3cn2)CC1 [Compound 24, 5-(1-((2,3-dihydrobenzofuran-5-yl)sulfonyl)piperidin-4-yl)-1H-pyrrolo[2,3-c]pyridine] |  | > 10 µM |
| Cc1sc(C(N)=O)nc1C1=CCN(S(=O)(=O)c2ccc3c(c2)CCO3)CC1 [Compound 203, 4-(1-((2,3-dihydrobenzofuran-5-yl)sulfonyl)-1,2,3,6-tetrahydropyridin-4-yl)-5-methylthiazole-2-carboxamide] |  | > 10 µM |
| Cn1ncc(S(=O)(=O)N2CCC(c3cc(-c4ccco4)n[nH]3)CC2)c1Cl [Compound 587] | 1.46 µM |  |
| Cc1ccncc1C1CCN(S(=O)(=O)c2cnn(C)c2Cl)CC1 [Compound 383, 3-(1-((5-chloro-1-methyl-1H-pyrazol-4-yl)sulfonyl)piperidin-4-yl)-4-methylpyridine] |  | 1.64 µM |
| Cc1cc2nccn2cc1C1CCN(S(=O)(=O)c2ccc3ncsc3c2)CC1 [Compound 68, 6-((4-(7-methylimidazo[1,2-a]pyridin-6-yl)piperidin-1-yl)sulfonyl)benzo[d]thiazole] |  | 6 µM |
| O=S(=O)(c1cnc2n1CCC2)N1CCC(c2cn3ncnc3cc2F)CC1 [Compound 233, 6-(1-((6,7-dihydro-5H-pyrrolo[1,2-a]imidazol-3-yl)sulfonyl)piperidin-4-yl)-7-fluoro-[1,2,4]triazolo[1,5-a]pyridine] |  | > 10 µM |
| [2H]C1([2H])CC(c2cn3ncnc3cc2F)CC([2H])([2H])N1S(=O)(=O)c1cc(C)ns1 [Compound 528, 5-((4-(7-fluoro-[1,2,4]triazolo[1,5-a]pyridin-6-yl)piperidin-1-yl-2,2,6,6-d4)sulfonyl)-3-methylisothiazole] | 0.595 µM |  |
| Cc1cc(C(F)(F)F)ncc1C1CCN(S(=O)(=O)c2cnn(C)c2C)CC1 [Compound 394, 5-(1-((1,5-dimethyl-1H-pyrazol-4-yl)sulfonyl)piperidin-4-yl)-4-methyl-2-(trifluoromethyl)pyridine] |  | 2.51 µM |
| Cc1cc2nccnc2cc1C1CCN(S(=O)(=O)c2cnn3c2OCCC3)CC1 [Compound 426, 3-((4-(7-methylquinoxalin-6-yl)piperidin-1-yl)sulfonyl)-6,7-dihydro-5H-pyrazolo[5,1-b][1,3]oxazine] | 0.026 µM |  |
| Cc1ncc(S(=O)(=O)N2CCC(c3cn4ccnc4cc3C)CC2)o1 [Compound 582, 2-methyl-5-((4-(7-methylimidazo[1,2-a]pyridin-6-yl)piperidin-1-yl)sulfonyl)oxazole] | 0.831 µM |  |
| Cn1ncc(S(=O)(=O)N2CC=C(c3cc4c(cc3Cl)OCO4)CC2)c1Cl [Compound 351, 1-((5-chloro-1-methyl-1H-pyrazol-4-yl)sulfonyl)-4-(6-chlorobenzo[d][1,3]dioxol-5-yl)-1,2,3,6-tetrahydropyridine] |  | 0.142 µM |
| O=S(=O)(c1cnc(Cl)s1)N1CCC(c2cn3ncnc3cc2C(F)(F)F)CC1 [Compound 519, 2-chloro-5-((4-(7-(trifluoromethyl)-[1,2,4]triazolo[1,5-a]pyridin-6-yl)piperidin-1-yl)sulfonyl)thiazole] | 1.59 µM |  |

Next, values leading:

| IC50 (vs EC80 acetylcholine) | IC50 [1] | Compound |
| --- | --- | --- |
| 0.261 µM |  | Cn1cnnc1S(=O)(=O)N1CCC(c2cn3ncnc3cc2Cl)CC1 [Compound 541, 7-chloro-6-(1-((4-methyl-4H-1,2,4-triazol-3-yl)sulfonyl)piperidin-4-yl)-[1,2,4]triazolo[1,5-a]pyridine] |
| > 10 µM |  | Cc1c(S(=O)(=O)N2CCC(c3cn4ncnc4cc3C(=O)N(C)C)CC2)cnn1C [Compound 471, 6-(1-((1,5-dimethyl-1H-pyrazol-4-yl)sulfonyl)piperidin-4-yl)-N,N-dimethyl-[1,2,4]triazolo[1,5-a]pyridine-7-carboxamide] |
| 0.303 µM |  | Cc1cc2ccnn2cc1C1CCN(S(=O)(=O)c2cnn(C)c2C#N)CC1 [Compound 481, 1-methyl-4-((4-(5-methylpyrazolo[1,5-a]pyridin-6-yl)piperidin-1-yl)sulfonyl)-1-pyrazole-5-carbonitrile] |
|  | 0.05 µM | Cc1c(C2CCN(S(=O)(=O)c3cnc4ccccn34)CC2)cn2ncnc2c1F [Compound 348, 8-fluoro-6-(1-(imidazo[1,2-a]pyridin-3-ylsulfonyl)piperidin-4-yl)-7-methyl-[1,2,4]triazolo[1,5-a]pyridine] |
| 0.02 µM |  | Cc1cc2ncnn2cc1C1CCN(S(=O)(=O)c2cnn3ccccc23)CC1 [Compound 508, 7-methyl-6-(1-(pyrazolo[1,5-a]pyridin-3-ylsulfonyl)piperidin-4-yl)-[1,2,4]triazolo[1,5-a]pyridine] |
|  | 0.164 µM | O=S(=O)(c1cnc2ccccn12)N1CCC(c2cn3ncnc3cc2C(F)(F)F)CC1 [Compound 338, 6-(1-(imidazo[1,2-a]pyridin-3-yl)sulfonyl)piperidin-4-yl)-7-(trifluoromethyl_-[1,2,4]triazolo[1,5-a]pyridine] |
| 0.216 µM |  | Cc1cc2ccnn2cc1C1CCN(S(=O)(=O)c2cnn(C)c2C)CC1 [Compound 453, 6-(1-((1,5-dimethyl-1H-pyrazol-4-yl)sulfonyl)piperidin-4-yl)-5-methylpyrazolo[1,5-a]pyridine] |
| 0.014 µM |  | Cc1cc2ncnn2cc1C1CCN(S(=O)(=O)c2cnc3sccn23)CC1 [Compound 526, 5-((4-(7-methyl-[1,2,4]triazolo[1,5-a]pyridin-6-yl)piperidin-1-yl)sulfonyl)imidazo[2,1-b]thiazole] |
| > 10 µM |  | Cc1c(S(=O)(=O)N2CCC(c3cn4ncnc4cc3C(C)(C)O)CC2)cnn1C [Compound 472, 2-(6-(1-((1,5-dimethyl-1H-pyrazol-4-yl)sulfonyl)piperidin-4-yl)-[1,2,4]triazolo[1,5-a]pyridin-7-yl)propan-2-ol] |
| > 10 µM |  | Cc1cc2ncnn2cc1C1CCN(S(=O)(=O)c2cnn(C)c2CN2Cc3ncccc3C2=O)CC1 [Compound 597, 6-((1-Methyl-4-((4-(7-methyl-[1,2,4]triazolo[1,5-a]pyridin-6-yl)piperidin-1-yl)sulfonyl)-1H-pyrazol-5-yl)methyl)-6,7-dihydro-5H-pyrrolo[3,4-b]pyridin-5-one] |
| 0.072 µM |  | Cc1cc2ncnn2cc1C1CCN(S(=O)(=O)c2cnn(C)c2CC#N)CC1 [Compound 401, 2-(1-methyl-4-((4-(7-methyl-[1,2,4]triazolo[1,5-a]pyridin-6-yl)piperidin-1-yl)sulfonyl)-1H-pyrazol-5-yl)acetonitrile] |
| 1.36 µM |  | Cc1cc2ncccc2cc1C1CCN(S(=O)(=O)c2c(Cl)nn3ccccc23)CC1 [Compound 447, 6-(1-((2-chloropyrazolo[1,5-a]pyridin-3-yl)sulfonyl)piperidin-4-yl)-7-methylquinoline] |
|  | > 10 µM | Cc1cc2ncnn2cc1C1CCN(S(=O)(=O)c2c[nH]cn2)CC1 [Compound 155, 6-(1-((1H-imidazol-4-yl)sulfonyl)piperidin-4-yl)-7-methyl-[1,2,4]triazolo[1,5-a]pyridine] |
| 0.006 µM |  | Cc1cc(S(=O)(=O)N2CCC(c3cn4ncnc4cc3C)CC2)sn1 [Compound 491, 3-methyl-5-((4-(7-methyl-[1,2,4]triazolo[1,5-a]pyridin-6-yl)piperidin-1-yl)sulfonyl)isothiazole] |
| > 10 µM |  | O=S(=O)(c1cnn2cccnc12)N1CCC(c2cn3ncnc3cc2F)CC1 [Compound 443, 7-fluoro-6-(1-(pyrazolo[1,5-a]pyrimidin-3-ylsulfonyl)piperidin-4-yl)-[1,2,4]triazolo[1,5-a]pyridine] |
|  | 2.4 µM | Cc1nn(C)cc1S(=O)(=O)N1CCC(c2cn3ncnc3cc2C(F)(F)F)CC1 [Compound 113, 6-(1-((1,3-dimethyl-1H-pyrazol-4-yl)sulfonyl)piperidin-4-yl)-7-(trifluoromethyl)-[1,2,4]triazolo[1,5-a]pyridine] |
|  | 0.134 µM | Cc1c(S(=O)(=O)N2CCC(c3cn4ncnc4cc3C3CC3)CC2)cnn1C [Compound 345, 7-cyclopropyl-6-(1-((1,5-dimethyl-1H-pyrazol-4-yl)sulfonyl)piperidin-4-yl)-[1,2,4]triazolo[1,5-a]pyridine] |
|  | 0.786 µM | Cc1c(S(=O)(=O)N2CC=C(c3cn4ncnc4cc3C3CC3)CC2)cnn1C [Compound 148, 7-cyclopropyl-6-(1-((1,5-dimethyl-1H-pyrazol-4-yl)sulfonyl)-1,2,3,6-tetrahydropyridin-4-yl)-[1,2,4]triazolo[1,5-a]pyridine] |
